Consider 1 molecule from patent US10905651B1, “Zeinmersome nanocarriers for drug delivery to the liver” (King Abdulaziz University, priority 2020, dated 2021).

Each structure is given as a SMILES string.

In one experiment the test system is fructose-fed rats. The note with it: 0.1 mg/kg/day; cited from earlier work.
The test system of experiment [1] is TAA-induced hepatic fibrosis rats. The experiment in a line: Inflammatory and oxidative markers in liver homogenate of TAA-induced hepatic fibrosis rats. In kind it is in vivo, rat. To be noted: two months; for IL-6 level in liver homogenate (reversal of TAA-induced increase): FIG. 5A; for TNF-α level in liver homogenate (reversal of TAA-induced increase): FIG. 5B; for MDA level in liver homogenate (reversal of TAA-induced increase): FIG. 6A; for GSH level in liver homogenate (reversal of TAA-induced decrease): FIG. 6B. Here is the method:
Rats were given freshly prepared TAA (0.9% w/v in saline solution, 200 mg/kg, ip) twice weekly for eight weeks. A normal control (NC) group of rats (n=8) received injections of the vehicle twice weekly for eight weeks. The TAA-treated rats were randomly assigned to groups (n=8), including a test group for each dosage of a free drug (not encapsulated in ZMS), each dosage of zeinmersomes encapsulating the drug, and a positive control group (PC) having hepatic fibrosis but receiving a vehicle-only treatment instead of a drug treatment. Five groups of rats (n=8) were given freshly prepared TAA (0.9% w/v in saline solution, 200 mg/kg, ip) twice weekly for eight weeks and a normal control (NC) group received vehicle injections, as described in Example 4. The five TAA groups included a positive control group (PC, untreated) and four groups treated with low and high doses (2 and 4 mg/kg/day) of OM as raw drug (OL & OH, respectively) and the same low and high doses (2 and 4 mg/kg/day) of OM formulated as zeinmersomes (OLZMS & OHZMS, respectively). The OM standard drug was suspended in distilled water containing 0.25% w/v carboxymethyl cellulose. The doses were given by oral gavage once daily for two months. […] At the end of treatment duration, blood samples were withdrawn from the retro-orbital plexus of the rats under light ether anesthesia. Plasma was separated and kept at −80° C. until analysis. Then, the rats were sacrificed by cervical dislocation under ether anesthesia. Liver and duodenum were isolated and parts of each were kept in 10% formalin-saline for histopathological examination. Other portions of liver tissue were homogenized. The plasma levels of ALT and AST and the homogenate levels of IL-6, reduced glutathione (GSH), TNF-α, malondialdehyde (MDA), and protein content were measured using ELISA kits (MyBioSource, Inc. CA, USA). In addition, the concentrations of olmesartan in plasma and liver homogenate were measured by HPLC/MS. A part of the liver of each animal was rapidly dissected out, washed, and homogenized in phosphate-buffered saline (0.01M PBS, pH 7.4) using a TissueLyser II (Qiagen; Venlo, Netherlands) at 4° C. to produce a 10% homogenate. The homogenates were centrifugated at 10000 rpm for 15 min at 4° C. and the supernatant was kept at −80° C. till time of analysis. The levels of TNF-α, IL-6, malondialdehyde (MDA), and reduced glutathione (GSH) were measured by the ELISA kits using a micro plate reader (Versa Max, Molecular Devices). The protein content in the liver homogenate was determined by using a colorimetric kit based on Bradford method (Bradford 1976) and the levels of IL-6, TNF-α, GSH, and MDA were expressed/mg protein. The IL-6 level was measured by using the competitive enzyme immunoassay technique utilizing a polyclonal anti-IL-6 antibody and an IL-6-HRP conjugate. The assay sample and buffer were incubated together with IL-6-HRP conjugate in pre-coated plate for one hour. After washing, the wells were then incubated with a substrate for HRP enzyme. The product of the enzyme-substrate reaction formed a blue colored complex. Finally, a stop solution was added to stop the reaction, which then turned the solution yellow. Absorbance was read at 450 nm in a microplate reader. The TNF-α level was measured by using the principle of double antibody sandwich ELISA technique is used. Anti-TNF-α antibody was pre-coated on the wells. Add biotin labeled anti-TNF-α antibodies to combine with the antigens on immune complexes. Avidin-Biotin-Peroxidase Complex was added, and unbound conjugates were washed away with wash buffer. TMB substrates were used to visualize HRP enzymatic reaction producing a blue color product that changed into yellow after adding acidic stop solution. The density of yellow is proportional to TNF-α amount of sample captured in plate. Absorbance was read at 450 nm. The GSH level was measured by using the principle of double antibody sandwich ELISA technique. Anti-GSH antibody was pre-coated on the wells. […]

Experiment [2] shares this test system. As to the kind of experiment: Assessment of liver function (plasma ALT and AST) in TAA-induced hepatic fibrosis rats. In kind it is in vivo, rat. The note with it: mean ± SEM, n=8. Here is the method: The protocol for this study was approved by the King Abdulaziz University Research Ethics Committee and adhered to the international guidelines for the Care and Use of Laboratory Animals. Adult Sprague-Dawley male rats weighing 200-250 g were obtained from King Fahd Research Center and housed in cages at 20-22° C. room temperature in a 12 h light-dark cycle. After one week of acclimatization, rats were used in the experiment. Food and water were available ad libitum. Rats were given freshly prepared TAA (0.9% w/v in saline solution, 200 mg/kg, ip) twice weekly for eight weeks. A normal control (NC) group of rats (n=8) received injections of the vehicle twice weekly for eight weeks. The TAA-treated rats were randomly assigned to groups (n=8), including a test group for each dosage of a free drug (not encapsulated in ZMS), each dosage of zeinmersomes encapsulating the drug, and a positive control group (PC) having hepatic fibrosis but receiving a vehicle-only treatment instead of a drug treatment. Five groups of rats (n=8) were given freshly prepared TAA (0.9% w/v in saline solution, 200 mg/kg, ip) twice weekly for eight weeks and a normal control (NC) group received vehicle injections, as described in Example 4. The five TAA groups included a positive control group (PC, untreated) and four groups treated with low and high doses (2 and 4 mg/kg/day) of OM as raw drug (OL & OH, respectively) and the same low and high doses (2 and 4 mg/kg/day) of OM formulated as zeinmersomes (OLZMS & OHZMS, respectively). The OM standard drug was suspended in distilled water containing 0.25% w/v carboxymethyl cellulose. The doses were given by oral gavage once daily for two months. […] At the end of treatment duration, blood samples were withdrawn from the retro-orbital plexus of the rats under light ether anesthesia. Plasma was separated and kept at −80° C. until analysis. Then, the rats were sacrificed by cervical dislocation under ether anesthesia. Liver and duodenum were isolated and parts of each were kept in 10% formalin-saline for histopathological examination. Other portions of liver tissue were homogenized. The plasma levels of ALT and AST and the homogenate levels of IL-6, reduced glutathione (GSH), TNF-α, malondialdehyde (MDA), and protein content were measured using ELISA kits (MyBioSource, Inc. CA, USA). In addition, the concentrations of olmesartan in plasma and liver homogenate were measured by HPLC/MS. Data are expressed as mean±SEM Comparisons between different groups were carried out using one-way analysis of variance (ANOVA) followed by Bonferroni test for multiple comparisons. […] The levels of ALT and AST were measured by using ELISA commercially available kits according to the manufacturer's protocol.

Where [3] appears, read: high dose 4 mg/kg/day oral gavage once daily for two months.
[4] abbreviates: low dose 2 mg/kg/day oral gavage once daily for two months.

Take `CCCc1nc(C(C)(C)O)c(C(=O)OCc2oc(=O)oc2C)n1Cc1ccc(-c2ccccc2-c2nnn[nH]2)cc1` [OM, (5-methyl-2-oxo-1,3-dioxol-4-yl)methyl 5-(2-hydroxypropan-2-yl)-2-propyl-3-[[4-[2-(2H-tetrazol-5-yl)phenyl]phenyl]methyl]imidazole-4-carboxylate]: in the experiment with fructose-fed rats, the TNF-α level result is “reduced” and the “cAMP level in the soleus muscle” value was “increased”. Besides, in experiment [1] (high dose 4 mg/kg/day oral), the “IL-6 level in liver homogenate (reversal of TAA-induced increase)” value is reported as “significantly reversed”, the “TNF-α level in liver homogenate (reversal of TAA-induced increase)” value was “significantly reversed”, the “MDA level in liver homogenate (reversal of TAA-induced increase)” value was “significantly reversed” and the “GSH level in liver homogenate (reversal of TAA-induced decrease)” value is reported as “significantly reversed”. Also, in experiment [1] (low dose 2 mg/kg/day oral), the “IL-6 level in liver homogenate (reversal of TAA-induced increase)” value is “All treatments except for OL significantly reversed”, the “TNF-α level in liver homogenate (reversal of TAA-induced increase)” value is listed as “All treatments except for OL significantly reversed”, the “MDA level in liver homogenate (reversal of TAA-induced increase)” value was “All treatments except for OL significantly reversed” and the “GSH level in liver homogenate (reversal of TAA-induced decrease)” value is “All treatments except for OL significantly reversed”. Moreover, in experiment [2] (setting [3]), the “plasma ALT” value stood at 81.41 U/L and the “plasma AST” value was found to be 169.00 U/L. For the same molecule, in experiment [2] (setting [4]), the “plasma ALT” value is given as 114.88 U/L and the “plasma AST” value came to 198.32 U/L.
